Some results are limits rather than exact numbers.

Test [1] concerns the target Adrenergic receptor alpha (Rattus norvegicus) (UniProt P15823+P23944+P43140+P22086+P19328+P22909). Description: Selectivity ratio is the antilog of the difference between pA2 values at alpha1- and alpha2- adrenoceptors.
Test [2] addresses T1, Adrenergic receptor alpha-2 (Rattus norvegicus, UniProt P22086+P19328+P22909).
T1 sequence (P22086 whole entry): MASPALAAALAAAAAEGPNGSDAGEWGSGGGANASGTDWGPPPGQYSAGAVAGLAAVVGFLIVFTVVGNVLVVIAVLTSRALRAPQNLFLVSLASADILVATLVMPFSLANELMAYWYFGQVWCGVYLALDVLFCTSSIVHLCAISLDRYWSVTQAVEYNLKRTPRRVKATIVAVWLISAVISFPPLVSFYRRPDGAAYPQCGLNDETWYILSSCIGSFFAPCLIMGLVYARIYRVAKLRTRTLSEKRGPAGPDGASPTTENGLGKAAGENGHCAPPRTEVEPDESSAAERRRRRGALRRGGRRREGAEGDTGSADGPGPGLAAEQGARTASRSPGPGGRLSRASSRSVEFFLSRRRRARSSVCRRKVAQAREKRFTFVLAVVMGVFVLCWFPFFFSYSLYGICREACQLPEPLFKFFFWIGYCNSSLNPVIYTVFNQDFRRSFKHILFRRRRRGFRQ
T1 sequence (P19328 whole entry): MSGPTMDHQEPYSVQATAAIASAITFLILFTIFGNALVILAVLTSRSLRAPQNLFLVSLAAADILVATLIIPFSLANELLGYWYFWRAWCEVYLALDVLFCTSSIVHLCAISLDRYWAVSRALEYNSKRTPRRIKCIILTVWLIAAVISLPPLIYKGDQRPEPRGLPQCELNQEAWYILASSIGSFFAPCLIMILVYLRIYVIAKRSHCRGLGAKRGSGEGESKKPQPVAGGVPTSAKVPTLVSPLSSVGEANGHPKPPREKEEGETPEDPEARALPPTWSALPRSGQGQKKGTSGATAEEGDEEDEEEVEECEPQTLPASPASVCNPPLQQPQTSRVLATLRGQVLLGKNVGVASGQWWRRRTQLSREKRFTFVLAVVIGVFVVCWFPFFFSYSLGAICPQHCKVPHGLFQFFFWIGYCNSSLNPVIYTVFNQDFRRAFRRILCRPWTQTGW
T1 sequence (P22909 whole entry): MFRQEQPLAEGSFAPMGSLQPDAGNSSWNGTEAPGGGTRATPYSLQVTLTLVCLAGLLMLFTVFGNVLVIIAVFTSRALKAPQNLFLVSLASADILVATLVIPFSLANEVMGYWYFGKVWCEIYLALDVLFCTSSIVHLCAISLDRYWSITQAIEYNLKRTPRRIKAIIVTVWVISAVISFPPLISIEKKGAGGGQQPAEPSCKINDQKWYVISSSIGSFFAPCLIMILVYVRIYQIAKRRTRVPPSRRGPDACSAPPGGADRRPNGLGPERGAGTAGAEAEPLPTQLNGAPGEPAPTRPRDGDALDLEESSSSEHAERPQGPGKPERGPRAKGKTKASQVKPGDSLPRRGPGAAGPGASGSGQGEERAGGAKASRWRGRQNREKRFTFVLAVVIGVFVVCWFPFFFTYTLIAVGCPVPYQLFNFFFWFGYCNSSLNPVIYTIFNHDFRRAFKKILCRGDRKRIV
Kind of test: Tested for the alpha-2-adrenoceptor blocking activity by antagonism of clonidine-induced depression of the twitch responses of the field-stimulated prostatic portion of isolated rat vas deferens. It counts as functional, tissue-based.

For test [3], the target named is T2, Adrenergic receptor alpha-1 (Rattus norvegicus, UniProt P15823+P23944+P43140).
T2 sequence (P15823 whole entry): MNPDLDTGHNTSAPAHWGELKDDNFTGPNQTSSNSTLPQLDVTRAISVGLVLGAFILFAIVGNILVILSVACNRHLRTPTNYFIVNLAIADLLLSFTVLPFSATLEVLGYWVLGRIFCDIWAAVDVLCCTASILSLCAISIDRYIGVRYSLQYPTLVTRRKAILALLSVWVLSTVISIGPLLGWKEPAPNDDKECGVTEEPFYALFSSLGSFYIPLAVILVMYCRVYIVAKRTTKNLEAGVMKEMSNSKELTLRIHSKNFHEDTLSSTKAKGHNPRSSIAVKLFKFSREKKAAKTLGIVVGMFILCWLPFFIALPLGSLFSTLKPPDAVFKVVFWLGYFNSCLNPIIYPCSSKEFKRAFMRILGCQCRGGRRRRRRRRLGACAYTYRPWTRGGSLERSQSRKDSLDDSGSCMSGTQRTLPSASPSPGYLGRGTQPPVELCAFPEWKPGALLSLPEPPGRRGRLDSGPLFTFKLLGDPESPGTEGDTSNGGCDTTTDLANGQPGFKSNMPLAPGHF
T2 sequence (P23944 whole entry): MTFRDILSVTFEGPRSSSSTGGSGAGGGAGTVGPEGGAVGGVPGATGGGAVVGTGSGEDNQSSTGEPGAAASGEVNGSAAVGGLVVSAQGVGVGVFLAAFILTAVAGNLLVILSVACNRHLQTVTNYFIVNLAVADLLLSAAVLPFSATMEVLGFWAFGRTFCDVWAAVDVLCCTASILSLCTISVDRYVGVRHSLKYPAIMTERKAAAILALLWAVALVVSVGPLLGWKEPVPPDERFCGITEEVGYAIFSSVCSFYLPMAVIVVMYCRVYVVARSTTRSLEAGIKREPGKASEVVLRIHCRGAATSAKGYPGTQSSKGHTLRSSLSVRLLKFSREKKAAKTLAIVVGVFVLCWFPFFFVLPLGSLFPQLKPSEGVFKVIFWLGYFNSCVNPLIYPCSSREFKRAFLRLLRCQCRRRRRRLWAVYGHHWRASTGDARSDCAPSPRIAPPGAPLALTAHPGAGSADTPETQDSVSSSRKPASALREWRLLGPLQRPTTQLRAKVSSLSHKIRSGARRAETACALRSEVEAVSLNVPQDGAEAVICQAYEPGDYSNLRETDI
T2 sequence (P43140 whole entry): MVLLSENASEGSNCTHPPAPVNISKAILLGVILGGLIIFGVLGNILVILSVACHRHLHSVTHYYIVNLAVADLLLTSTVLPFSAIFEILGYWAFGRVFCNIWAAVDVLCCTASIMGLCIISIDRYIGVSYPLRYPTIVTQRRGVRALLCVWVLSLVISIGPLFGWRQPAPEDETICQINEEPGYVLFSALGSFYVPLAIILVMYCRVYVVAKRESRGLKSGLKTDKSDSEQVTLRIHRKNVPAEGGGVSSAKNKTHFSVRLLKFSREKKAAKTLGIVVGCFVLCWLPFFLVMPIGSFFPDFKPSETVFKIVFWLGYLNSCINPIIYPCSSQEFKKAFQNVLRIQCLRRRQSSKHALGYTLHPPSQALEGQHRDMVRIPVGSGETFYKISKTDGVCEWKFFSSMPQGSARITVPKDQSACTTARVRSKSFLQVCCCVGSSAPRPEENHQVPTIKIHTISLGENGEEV
Kind of test: Ex vivo alpha-1-adrenoceptor blocking activity by antagonism of (-)-norepinephrine -induced contractions of the epididymal portion of isolated rat vas deferens. It counts as functional.

Test [4] concerns the target T1, Adrenergic receptor alpha-2. Description: Tested for the alpha-2-adrenoceptor blocking activity by antagonism of clonidine-induced depression of the twitch responses of the field-stimulated prostatic portion of isolated rat vas deferens; inactive uM. It counts as functional.
Test [5] shares this target. Kind of test: Tested for the alpha-2-adrenoceptor blocking activity by antagonism of clonidine-induced depression of the twitch responses of the field-stimulated prostatic portion of isolated rat vas deferens (inactive up to 30 uM). It counts as functional, tissue-based.
Test [6] shares this target. Description: Tested for the alpha-2-adrenoceptor blocking activity by antagonism of clonidine-induced depression of the twitch responses of the field-stimulated prostatic portion of isolated rat vas deferens; at concentration 30 uM. It counts as functional.

With `COc1cccc(OC)c1OCCNC[C@H]1Oc2ccccc2O[C@@H]1c1ccc(C)cc1`, in test [1], the Ratio was 21000. In addition, the pA2 in test [2] amounted to 4.37; in test [3], 8.69.

Take `CCc1ccc([C@@H]2Oc3ccccc3O[C@@H]2CNCCOc2c(OC)cccc2OC)cc1`: the Ratio in test [1] was greater than 500. For the same compound, the pA2 is given as less than 4.52 in test [4] and 7.23 in test [3].

With `COc1ccc([C@H]2Oc3ccccc3O[C@@H]2CNCCOc2c(OC)cccc2OC)cc1`, in test [1], the Ratio was greater than 14000. In addition, the pA2 is recorded as less than 4.52 in test [4] and 8.67 in test [3].

`COc1cccc(OC)c1OCCNC[C@H]1Oc2ccccc2O[C@@H]1C1CCCCC1`: the pA2 in test [5] was less than 4.52; in test [3] it was 6.09. In addition, the Ratio in test [1] is greater than 40.

For the compound `COc1cccc(OC)c1OCCNC[C@H]1Oc2ccccc2O[C@@H]1c1ccc(Cl)cc1`, the Ratio in test [1] came to 1000. The pA2 in test [6] was found to be 5.17; in test [3], 8.15.

For the compound `COc1cccc(OC)c1OCCNC[C@H]1Oc2ccccc2O[C@@H]1c1ccc(OC(C)=O)cc1`, the Ratio in test [1] was determined as 2600. Further, the pA2 was 4.87 in test [2] and 8.12 in test [3].

As for `COc1cccc(OC)c1OCCNC[C@H]1Oc2ccccc2O[C@@H]1C(C)C`, in test [1], the Ratio came out at 4. For the same compound, the pA2 in test [2] is 5.94; in test [3] it was 6.57.

For `COc1cccc(OC)c1OCCNC[C@H]1Oc2ccccc2O[C@H]1C`, the Ratio in test [1] was determined as 630. The pA2 was 5.7 in test [2] and 8.5 in test [3].

As to `CCc1ccc([C@H]2Oc3ccccc3O[C@@H]2CNCCOc2c(OC)cccc2OC)cc1`, in test [1], the Ratio was greater than 2000. Besides, the figures for the pA2 in test [4] and in test [3] were less than 4.52 and 7.82, respectively.

Take `COc1cccc(OC)c1OCCNCC1COc2ccccc2O1` (stereo unspecified): in test [1], the Ratio came out at 740. Besides, the pA2 worked out at 6.39 in test [2] and 9.26 in test [3].

Consider `COc1cccc(OC)c1OCCNC[C@H]1Oc2ccccc2O[C@H]1c1ccc(C)cc1`, for which the Ratio in test [1] was determined as 73. Further, the pA2 stood at 5.24 in test [6] and 7.1 in test [3].

For the compound `COc1cccc(OC)c1OCCNC[C@H]1Oc2ccccc2O[C@@H]1c1ccc(O)cc1`, the Ratio in test [1] came to 1000. In addition, the figures for the pA2 in test [6] and in test [3] were 4.82 and 7.84, respectively.

Take `COc1cccc(OC)c1OCCNC[C@H]1Oc2ccccc2O[C@@H]1c1ccccc1`: in test [1], the Ratio was 16000. Besides, the pA2 in test [2] turned out to be 4.18; in test [3], 8.39.

As to `COc1cccc(OC)c1OCCNC[C@H]1Oc2ccccc2O[C@H]1c1ccc(Cl)cc1`, in test [1], the Ratio came out at 210. Moreover, the pA2 was determined as 4.76 in test [6] and 7.09 in test [3].

For the compound `COc1cccc(OC)c1OCCNC[C@H]1Oc2ccccc2O[C@H]1C(C)C`, the Ratio in test [1] came out at 2. For the same compound, the pA2 is 5.76 in test [2] and 5.94 in test [3].

With `COc1cccc(OC)c1OCCNC[C@H]1Oc2ccccc2O[C@H]1C1CCCCC1`, the values for the pA2 in test [5] and in test [3] were less than 4.52 and 6.2, respectively. Moreover, the Ratio in test [1] is greater than 50.

As for `COc1cccc(OC)c1OCCNC[C@H]1Oc2ccccc2O[C@@H]1C`, in test [1], the Ratio worked out at 30. The pA2 in test [2] is 6.46; in test [3], 7.94.

One may read the pA2 as a measure of antagonist potency on a negative log scale. Low values mean lower antagonist potency, high ones higher antagonist potency.

The record behind these values is ChEMBL document CHEMBL1126699, “Structure-activity relationships in 1,4-benzodioxan-related compounds. 4. Effect of aryl and alkyl substituents at position 3 on alpha-adrenoreceptor blocking activity” (J Med Chem, 1993).
